Experimental findings from patent US11702441B2, “Spirobicyclic analogues” (Janssen Pharmaceutica NV, priority 2017, dated 2023) are described below.

The term pIC50 denotes the negative decadic logarithm of the IC50, by convention in mol/L. As usually defined, the IC50 is the concentration needed to halve the response being measured. Higher therefore signals weaker potency in that assay.

The target of the experiment is T1, PRMT5-MEP50 enzyme (Homo sapiens, UniProt O14744).
T1 construct: One virus expresses full length human PRMT5 with Flag-tag at N-terminus; Flag (N); purchased Charles River (Argenta); host or cells: insect cells (Sf9), baculovirus co-infection
T1 sequence (O14744 whole entry): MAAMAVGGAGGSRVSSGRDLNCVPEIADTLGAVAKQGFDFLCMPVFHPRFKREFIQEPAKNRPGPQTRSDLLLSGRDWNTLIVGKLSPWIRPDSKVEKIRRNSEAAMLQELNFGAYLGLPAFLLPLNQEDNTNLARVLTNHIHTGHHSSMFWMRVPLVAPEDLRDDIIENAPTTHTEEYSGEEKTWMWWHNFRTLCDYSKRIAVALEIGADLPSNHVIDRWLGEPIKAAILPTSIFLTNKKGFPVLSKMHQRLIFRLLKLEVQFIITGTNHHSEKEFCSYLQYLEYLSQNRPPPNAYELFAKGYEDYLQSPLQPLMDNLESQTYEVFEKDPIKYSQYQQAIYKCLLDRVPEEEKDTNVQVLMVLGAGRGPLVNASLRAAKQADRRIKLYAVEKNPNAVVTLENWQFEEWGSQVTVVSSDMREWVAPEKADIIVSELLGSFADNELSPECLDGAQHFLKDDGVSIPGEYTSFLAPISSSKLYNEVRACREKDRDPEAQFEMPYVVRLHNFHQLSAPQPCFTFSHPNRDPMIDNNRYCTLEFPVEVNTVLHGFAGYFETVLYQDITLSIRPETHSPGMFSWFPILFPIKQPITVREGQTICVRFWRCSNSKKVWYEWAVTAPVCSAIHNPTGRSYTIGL
T1 sequence (Q9BQA1 whole entry partner): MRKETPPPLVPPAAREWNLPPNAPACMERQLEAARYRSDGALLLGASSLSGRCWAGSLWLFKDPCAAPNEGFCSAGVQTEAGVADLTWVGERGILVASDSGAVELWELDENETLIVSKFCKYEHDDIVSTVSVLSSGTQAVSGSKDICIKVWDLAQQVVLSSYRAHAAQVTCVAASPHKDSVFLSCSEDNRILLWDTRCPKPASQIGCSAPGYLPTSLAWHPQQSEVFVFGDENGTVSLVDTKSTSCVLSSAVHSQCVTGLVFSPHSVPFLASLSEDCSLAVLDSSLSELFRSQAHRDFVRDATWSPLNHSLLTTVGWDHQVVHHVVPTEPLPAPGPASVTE
Put plainly: High throughput mass spectrometer assay of PRMT5-MEP50 enzyme activity (SAH formation). The experiment is classed as biochemical. Particulars: averaged values; inhibition of SAH formation; 1 μM SAM, 0.3 μM H2A, 1.25 nM enzyme, 30° C. The text has this:
Reagents. PRMT5-MEP50 enzyme was purchased from Charles River (Argenta). The enzyme complex was produced in insect cells (Sf9) infected simultaneously with two baculoviruses. One virus expresses full length human PRMT5 with Flag-tag at N-terminus, the second virus expresses full length MEP50 with His6-TEV cleavage at N-terminus. The protein was affinity purified using anti-Flag (M2) beads eluted with 3×FLAG peptide, followed by His-Select eluted with 0.5M imidazole. Eluted protein was then dialysed against tris-buffered saline (TBS) (pH 8.0) containing 20% glycerol and 3 mM dithiothreitol (DTT).
Full-length untagged human recombinant histone H2A (residues 1-130, Genbank Accession #NM_021052, MW=14.1 kDa) expressed in E. coli was purchased from Reaction Biology Corporation, Cat #HMT-11-146. Reagents used for making reaction buffer or stopping reaction were purchased including Tris base (Sigma Cat #T-1503), NaCl (Sigma Cat #RGF-3270), MgCl2 (Sigma Cat #M0250), DTT (Invitrogen Cat #15508-013) and Formic Acid (Riedel deHaen, Cat #33015)
High Throughput Mass Spectrometer Assay PRMT5 catalyzes the sequential methylations of the terminal nitrogen atoms on the guanidine groups of arginine residues within proteins using co-substrate S-adenosyl-L-methionine (AdoMet, SAM), forming mono-methyl (MMA), symmetric-dimethyl arginine (sDMA) and S-adenosyl-L-homocysteine (AdoHcy, SAH). The enzyme activity was determined by following the product SAH formation using high throughput mass spectrometry (Agilent Rapidfire 300 System coupled to a Sciex 4000 series QTrap® triple-quad MS/MS). The reaction buffer was 20 mM Tris-HCl, pH 8.5, 50 mM NaCl. 5 mM MgCl2 and 1 mM DTT. The reaction activity was stopped using 1% formic acid (final concentration).
Inhibition Studies. The IC50 Studies were performed using eleven point dosing series made for each compound by serially diluted 1:2 in dimethyl sulfoxide (DMSO), with point 12 being a DMSO control. Compounds were first spotted to plates, and followed by addition of 2 μM SAM and 0.6 μM H2A (histone H2A) solution mixture. The same volume of enzyme solution was added to initiate the enzymatic reactions. The final concentrations of the reaction are at 1 μM SAM, 0.3 μM H2A and 1.25 nM enzyme. The reaction was incubated at 30° C. for 60 minutes (min) when 10 nM enzyme was used and for 120 min when 1.25 nM enzyme was used. Subsequently, the reaction was quenched by addition of formic acid to a final concentration of 1%. The inhibitions of SAH formation in the presence of compounds were calculated as a percentage of the control relative to the uninhibited reaction as a function of inhibitor concentration. The data were fit as follows: Y=Bottom+(Top−Bottom)/(1+10^((log IC50−X)*h))
where IC50 is the inhibitor concentration (same unit as X) at 50% inhibition and h is the Hill slope. Y is percent of inhibition, X is log of compound concentration. Bottom and Top are the plateaus in same units as Y.
The pIC50 values in the Table below are averaged values (Co. No. means compound number: n.d. means not determined)
Turning to `Cl.Nc1ncnc2c1ccn2[C@@H]1CC2(CC(Cn3c(Cl)cccc3=O)C2)[C@@H](O)[C@H]1O` (mixture of isomers) [Compound 32], the pIC50 amounted to 5.69.

`Nc1ncnc2c1ccn2[C@@H]1C[C@]2(C[C@H](CO)C2)[C@@H](O)[C@H]1O` (single isomer, unassigned) [Compound 35] gave a half-inhibitory concentration (IC50) of 933 nM.

Regarding `Nc1ncnc2c1ccn2[C@@H]1C[C@]2(C[C@@H](CO)C2)[C@@H](O)[C@H]1O` (single isomer, unassigned) [Compound 36], it took 1410 nM to reach half-maximal inhibition (IC50).

`Nc1ncnc2c1ncn2[C@@H]1O[C@]2(C[C@@H](OCc3ccccc3)C2)[C@@H](O)[C@H]1O` [Compound 1] gave an IC50 of 3020 nM.

Molecule `Nc1ccc2ccc(O[C@H]3C[C@]4(C3)O[C@@H](n3cnc5c(N)ncnc53)[C@H](O)[C@@H]4O)cc2n1` [Compound 2] showed an IC50 of 30.9 nM.

Turning to `Nc1ncnc2c1ncn2[C@@H]1O[C@]2(C[C@@H](Oc3ccc4ccc(Cl)nc4c3)C2)[C@@H](O)[C@H]1O` [Compound 3], inhibition was half-maximal at 8130 nM (IC50).

With `Nc1ncnc2c1ncn2[C@@H]1O[C@]2(C[C@@H](Oc3ccc4cc(Br)cnc4c3)C2)[C@@H](O)[C@H]1O` [Compound 4], the IC50 was 3020 nM.

`Nc1ccc2ccc(O[C@H]3C[C@@]4(C3)O[C@@H](n3cnc5c(N)ncnc53)[C@H](O)[C@@H]4O)cc2n1` [Compound 5] gave an IC50 of 9.33 nM.

Regarding `Nc1ncnc2c1ncn2[C@@H]1O[C@]2(C[C@H](Oc3ccc4cc(Br)cnc4c3)C2)[C@@H](O)[C@H]1O` [Compound 6], the IC50 was 120 nM.

As to `Nc1ncnc2c1ncn2[C@@H]1O[C@]2(C[C@@H](O)C2)[C@@H](O)[C@H]1O` [Compound 7], the IC50 is 5010 nM.

Take `Nc1ncnc2c1ncn2[C@@H]1O[C@]2(C[C@H](O)C2)[C@@H](O)[C@H]1O` [Compound 8]: the half-inhibitory concentration (IC50) was 3550 nM.

Regarding `Nc1ncnc2c1ncn2[C@@H]1O[C@]2(C[C@H](Oc3ccc4cc(Cl)cnc4c3)C2)[C@@H](O)[C@H]1O` [Compound 9], the IC50 is 257 nM.

As for `Nc1ncnc2c1ccn2[C@@H]1C[C@]2(C[C@H](Oc3ccc4cccnc4c3)C2)[C@@H](O)[C@H]1O` [Compound 11], it took 91.2 nM to reach half-maximal inhibition (IC50).

The molecule `Nc1ncnc2c1ccn2[C@@H]1C[C@]2(C[C@H](Oc3ccc4cc(Cl)cnc4c3)C2)[C@@H](O)[C@H]1O` [Compound 12] showed an IC50 of 2400 nM.

`Nc1ncnc2c1ccn2[C@@H]1C[C@]2(C[C@@H](Oc3ccc4cc(Cl)cnc4c3)C2)[C@@H](O)[C@H]1O` [Compound 13]: the IC50 was 646 nM.

`Nc1ncnc2c1ccn2[C@@H]1C[C@]2(C[C@H](Cc3ccc4cc(Cl)cnc4c3)C2)[C@@H](O)[C@H]1O` [Compound 14] gave an IC50 of 2000 nM.

For the molecule `Nc1ncnc2c1ccn2[C@@H]1C[C@]2(C[C@@H](Cc3ccc4cc(Cl)cnc4c3)C2)[C@@H](O)[C@H]1O` [Compound 15], the IC50 is 1100 nM.

With `Nc1ncnc2c1ccn2[C@@H]1C[C@]2(C[C@H](Cc3ccc4scnc4c3)C2)[C@@H](O)[C@H]1O` [Compound 16], inhibition was half-maximal at 490 nM (IC50).

The molecule `Nc1ncnc2c1ccn2[C@@H]1C[C@]2(C[C@@H](Cc3ccc4scnc4c3)C2)[C@@H](O)[C@H]1O` [Compound 17] showed an IC50 of 389 nM.

Molecule `Nc1nc2cc(C[C@H]3C[C@]4(C[C@@H](n5ccc6c(N)ncnc65)[C@H](O)[C@@H]4O)C3)ccc2s1` [Compound 18] showed an IC50 of 35.5 nM.

`Nc1nc2cc(C[C@H]3C[C@@]4(C[C@@H](n5ccc6c(N)ncnc65)[C@H](O)[C@@H]4O)C3)ccc2s1` [Compound 19] had an IC50 of 132 nM.

Turning to `Nc1ncnc2c1ccn2[C@@H]1C[C@]2(C[C@H](Cc3ccc4ncsc4c3)C2)[C@@H](O)[C@H]1O` [Compound 20], the IC50 was 490 nM.

The molecule `Nc1ncnc2c1ccn2[C@@H]1C[C@]2(C[C@@H](Cc3ccc4ncsc4c3)C2)[C@@H](O)[C@H]1O` [Compound 21] showed an IC50 of 145 nM.

In turn, `Nc1nc2ccc(C[C@H]3C[C@]4(C[C@@H](n5ccc6c(N)ncnc65)[C@H](O)[C@@H]4O)C3)cc2s1` [Compound 22] showed an IC50 of 1580 nM.

In turn, `Nc1nc2ccc(C[C@H]3C[C@@]4(C[C@@H](n5ccc6c(N)ncnc65)[C@H](O)[C@@H]4O)C3)cc2s1` [Compound 23] gave an IC50 of 295 nM.

`Nc1ncnc2c1ccn2[C@@H]1C[C@]2(C[C@H](Cc3ccn4ccnc4c3)C2)[C@@H](O)[C@H]1O` [Compound 24]: half-maximal inhibition (IC50) was put at 9.12 nM.

`Nc1ncnc2c1ccn2[C@@H]1C[C@]2(C[C@@H](Cc3ccn4ccnc4c3)C2)[C@@H](O)[C@H]1O` [Compound 25]: the IC50 is 10.2 nM.

Consider `Nc1ncnc2c1ccn2[C@@H]1C[C@]2(C[C@H](Cc3ccccn3)C2)[C@@H](O)[C@H]1O` [Compound 26], for which half-maximal inhibition (IC50) required 2450 nM.

The molecule `Nc1ncnc2c1ccn2[C@@H]1C[C@]2(C[C@@H](Cc3ccccn3)C2)[C@@H](O)[C@H]1O` [Compound 27] had an IC50 of 5620 nM.

With `Nc1ncnc2c1ccn2[C@@H]1C[C@]2(C[C@H](Cc3cccnc3)C2)[C@@H](O)[C@H]1O` [Compound 28], the IC50 was 145 nM.

Regarding `Nc1ncnc2c1ccn2[C@@H]1C[C@]2(C[C@@H](Cc3cccnc3)C2)[C@@H](O)[C@H]1O` [Compound 29], the IC50 is 170 nM.

Consider `Nc1ncnc2c1ccn2[C@@H]1C[C@]2(C[C@H](COc3cccc(Cl)n3)C2)[C@@H](O)[C@H]1O` [Compound 30], for which the IC50 was 1620 nM.

`Nc1ncnc2c1ccn2[C@@H]1C[C@]2(C[C@@H](COc3cccc(Cl)n3)C2)[C@@H](O)[C@H]1O` [Compound 31] gave an IC50 of 3470 nM.

`Nc1nc2cc(C[C@H]3C[C@]4(C[C@@H](n5ccc6c(N)ncnc65)[C@H](O)[C@@H]4O)C3)ccc2cc1Br` [Compound 33] had an IC50 of 245 nM.

`Nc1ncnc2c1ncn2[C@@H]1O[C@]2(C[C@H](Cc3ccc4cc(Cl)cnc4c3)C2)[C@@H](O)[C@H]1O` [Compound 44] had an IC50 of 4570 nM.

With `Nc1ncnc2c1ncn2[C@@H]1O[C@]2(C[C@@H](Cc3ccc4cc(Cl)cnc4c3)C2)[C@@H](O)[C@H]1O` [Compound 45], half-maximal inhibition (IC50) required 5500 nM.
